Patent US9353088B2, “Crystalline pharmaceutical and methods of preparation and use thereof” (SARcode Bioscience Inc., priority 2009, dated 2016)

Experiment: Dynamic Vapor Sorption (DVS) analysis
Assay type: physicochemical
Method: Dynamic Vapor Sorption (DVS) analysis was performed with a Surface Measurement Systems DVS-1 water vapor sorption analyzer. The experiments were run by placing the sample on a quartz holder on top of a microbalance, and allowing the sample to equilibrate at 50% relative humidity (r.h.) before starting the pre-defined humidity program. The program proceeded in the following steps: 1 hour at 50% r.h.; 50% to 0% r.h. at a rate of 5% r.h. change per hour; 5 hours at 0% r.h; 0% r.h to […]. at 5% r.h change per hour; 5 hours at 95% r.h.; 95% r.h. to 50% r.h. at a rate of 5% r.h. change per hour, and followed by one hour at 50% r.h.

| Compound | water content by DVS (after mass loss at lowest relative humidity of 0.4%) | water content by DVS (at the start of the experiment) | water content by DVS (mass gain at 95% relative humidity) | hygroscopicity (DVS, 50 hours, 5 hours at 95% relative humidity) |
| --- | --- | --- | --- | --- |
| CS(=O)(=O)c1cccc(C[C@H](NC(=O)c2c(Cl)cc3c(c2Cl)CCN(C(=O)c2ccc4ccoc4c2)C3)C(=O)O)c1 [Crystalline Form A] | 0.5 mole water per mole free acid | about 0.9 mole water per mole free acid | 1.1 mole water per mole free acid | – |
| CS(=O)(=O)c1cccc(C[C@H](NC(=O)c2c(Cl)cc3c(c2Cl)CCN(C(=O)c2ccc4ccoc4c2)C3)C(=O)O)c1 [Crystalline Form B] | – | – | – | does not appear to be hygroscopic |
